Results as given in the supplement of paper PMC10307832.

Experiments:
Experiment in all cases: relative viability (nuclei count vs DMSO), 5 days (fraction); higher = more cells survive
[1] = tested on: HARA
How it was run: (§1)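 After 5 days of treatment, lung cancer cells in 1536-well plates were fixed and stained in a single step (final 0.05% Triton X-100, 1% formaldehyde, 1 ug/ml Hoechst) and their nuclei counted on 4× images. Treatment had been applied by pin tool the day after seeding as one drug alone or as a fixed anchor-drug dose with five library-drug doses (not always all listed) in √10 steps. Relative viability is the nuclei count of treated wells divided by that of vehicle wells, and values are medians of duplicate plates.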

[2] = tested on: LU99A
How it was run: as §1

[3] = tested on: NCI-H2405
How it was run: as §1

[4] = tested on: EMC-BAC-2
How it was run: as §1

[5] = tested on: NCI-H1755
How it was run: as §1

[6] = tested on: NCI-H460
How it was run: as §1

[7] = tested on: EPLC-272H
How it was run: as §1

[8] = tested on: NCI-H647
How it was run: as §1

[9] = tested on: ChaGo-K-1
How it was run: as §1

[10] = tested on: EKVX
How it was run: as §1

[11] = tested on: NCI-H1792
How it was run: as §1

[12] = tested on: HCC-44
How it was run: as §1

[13] = tested on: NCI-H596
How it was run: as §1

[14] = tested on: COR-L 105
How it was run: as §1

[15] = tested on: NCI-H1650
How it was run: as §1

[16] = tested on: NCI-H1993
How it was run: as §1

[17] = tested on: NCI-H1734
How it was run: as §1

[18] = tested on: RERF-LC-KJ
How it was run: as §1

[19] = tested on: A-427
How it was run: as §1

[20] = tested on: NCI-H358
How it was run: as §1

[21] = tested on: LK-2
How it was run: as §1

How did the relative viability ([1]; first compound 0.001 µM) turn out when Cc1cn(-c2cc(NC(=O)c3ccc(C)c(Nc4nccc(-c5cccnc5)n4)c3)cc(C(F)(F)F)c2)cn1 [Nilotinib] + C[C@@H](Oc1cc(-c2cnn(C3CCNCC3)c2)cnc1N)c1c(Cl)ccc(F)c1Cl [Crizotinib] (partner 1 µM) was run?
The relative viability was 1.09.

What about the relative viability ([1]; first compound 0.003162 µM) of the same compound?
Its relative viability is 1.42.

What about the relative viability ([1]; first compound 0.01 µM) of the same compound?
The relative viability was 1.61.

And the relative viability ([1]; first compound 0.03162 µM)?
The relative viability was 0.886.

And the relative viability ([1]; first compound 0.1 µM)?
Its relative viability is 1.05.

And the relative viability ([2]; first compound 0.001 µM)?
The relative viability was 0.542.

What about the relative viability ([2]; first compound 0.003162 µM) of the same compound?
Its relative viability is 0.545.

And the relative viability ([2]; first compound 0.01 µM)?
Its relative viability is 0.629.

What about the relative viability ([2]; first compound 0.03162 µM) of the same compound?
The relative viability was 0.429.

What about the relative viability ([2]; first compound 0.1 µM) of the same compound?
The relative viability was 0.343.

What about the relative viability ([3]; first compound 0.001 µM) of the same compound?
Its relative viability is 0.854.

And the relative viability ([3]; first compound 0.003162 µM)?
The relative viability was 0.746.

And the relative viability ([3]; first compound 0.01 µM)?
Its relative viability is 0.84.

What about the relative viability ([3]; first compound 0.03162 µM) of the same compound?
Its relative viability is 0.747.

And the relative viability ([3]; first compound 0.1 µM)?
Its relative viability is 0.857.

And the relative viability ([4]; first compound 0.001 µM)?
The relative viability was 0.676.

And the relative viability ([4]; first compound 0.003162 µM)?
The relative viability was 0.682.

What about the relative viability ([4]; first compound 0.01 µM) of the same compound?
The relative viability was 0.795.

What about the relative viability ([4]; first compound 0.03162 µM) of the same compound?
The relative viability was 0.673.

What about the relative viability ([4]; first compound 0.1 µM) of the same compound?
Its relative viability is 0.753.

What about the relative viability ([5]; first compound 0.001 µM) of the same compound?
Its relative viability is 0.778.

And the relative viability ([5]; first compound 0.003162 µM)?
The relative viability was 0.962.

What about the relative viability ([5]; first compound 0.01 µM) of the same compound?
Its relative viability is 1.2.

What about the relative viability ([5]; first compound 0.03162 µM) of the same compound?
The relative viability was 0.666.

What about the relative viability ([5]; first compound 0.1 µM) of the same compound?
Its relative viability is 0.745.

What about the relative viability ([6]; first compound 0.001 µM) of the same compound?
The relative viability was 0.752.

And the relative viability ([6]; first compound 0.003162 µM)?
The relative viability was 1.06.

What about the relative viability ([6]; first compound 0.01 µM) of the same compound?
Its relative viability is 1.56.

What about the relative viability ([6]; first compound 0.03162 µM) of the same compound?
Its relative viability is 0.245.

And the relative viability ([6]; first compound 0.1 µM)?
The relative viability was 0.901.

And the relative viability ([7]; first compound 0.001 µM)?
The relative viability was 0.942.

What about the relative viability ([7]; first compound 0.003162 µM) of the same compound?
The relative viability was 0.935.

What about the relative viability ([7]; first compound 0.01 µM) of the same compound?
Its relative viability is 1.01.

And the relative viability ([7]; first compound 0.03162 µM)?
Its relative viability is 0.831.

What about the relative viability ([7]; first compound 0.1 µM) of the same compound?
Its relative viability is 0.917.

And the relative viability ([8]; first compound 0.001 µM)?
Its relative viability is 1.05.

What about the relative viability ([8]; first compound 0.003162 µM) of the same compound?
Its relative viability is 1.34.

What about the relative viability ([8]; first compound 0.03162 µM) of the same compound?
Its relative viability is 0.749.

And the relative viability ([8]; first compound 0.1 µM)?
Its relative viability is 0.716.

And the relative viability ([9]; first compound 0.001 µM)?
Its relative viability is 1.1.

What about the relative viability ([9]; first compound 0.003162 µM) of the same compound?
The relative viability was 1.08.

What about the relative viability ([9]; first compound 0.01 µM) of the same compound?
Its relative viability is 1.27.

And the relative viability ([9]; first compound 0.03162 µM)?
The relative viability was 0.674.

And the relative viability ([9]; first compound 0.1 µM)?
The relative viability was 1.08.

And the relative viability ([10]; first compound 0.001 µM)?
Its relative viability is 0.812.

What about the relative viability ([10]; first compound 0.003162 µM) of the same compound?
The relative viability was 1.39.

And the relative viability ([10]; first compound 0.01 µM)?
The relative viability was 1.42.

And the relative viability ([10]; first compound 0.03162 µM)?
Its relative viability is 0.809.

What about the relative viability ([10]; first compound 0.1 µM) of the same compound?
Its relative viability is 1.13.

What about the relative viability ([11]; first compound 0.001 µM) of the same compound?
The relative viability was 0.967.

What about the relative viability ([11]; first compound 0.01 µM) of the same compound?
Its relative viability is 1.15.

What about the relative viability ([11]; first compound 0.1 µM) of the same compound?
Its relative viability is 1.16.

What about the relative viability ([12]; first compound 0.001 µM) of the same compound?
Its relative viability is 0.799.

And the relative viability ([12]; first compound 0.003162 µM)?
The relative viability was 0.978.

And the relative viability ([12]; first compound 0.01 µM)?
The relative viability was 1.01.

And the relative viability ([12]; first compound 0.03162 µM)?
The relative viability was 0.717.

And the relative viability ([12]; first compound 0.1 µM)?
Its relative viability is 0.754.

And the relative viability ([13]; first compound 0.001 µM)?
Its relative viability is 0.937.

And the relative viability ([13]; first compound 0.01 µM)?
Its relative viability is 1.07.

What about the relative viability ([13]; first compound 0.03162 µM) of the same compound?
The relative viability was 0.958.

And the relative viability ([13]; first compound 0.1 µM)?
The relative viability was 1.1.

What about the relative viability ([14]; first compound 0.001 µM) of the same compound?
The relative viability was 0.821.

What about the relative viability ([14]; first compound 0.01 µM) of the same compound?
The relative viability was 0.796.

What about the relative viability ([14]; first compound 0.03162 µM) of the same compound?
Its relative viability is 0.668.

And the relative viability ([14]; first compound 0.1 µM)?
The relative viability was 0.662.

And the relative viability ([15]; first compound 0.001 µM)?
The relative viability was 1.07.

What about the relative viability ([15]; first compound 0.003162 µM) of the same compound?
The relative viability was 1.1.

And the relative viability ([15]; first compound 0.01 µM)?
Its relative viability is 0.998.

What about the relative viability ([15]; first compound 0.03162 µM) of the same compound?
Its relative viability is 0.777.

What about the relative viability ([15]; first compound 0.1 µM) of the same compound?
Its relative viability is 0.87.

What about the relative viability ([16]; first compound 0.001 µM) of the same compound?
The relative viability was 0.998.

What about the relative viability ([16]; first compound 0.003162 µM) of the same compound?
Its relative viability is 0.838.

What about the relative viability ([16]; first compound 0.01 µM) of the same compound?
The relative viability was 0.994.

What about the relative viability ([16]; first compound 0.03162 µM) of the same compound?
The relative viability was 0.762.

What about the relative viability ([16]; first compound 0.1 µM) of the same compound?
The relative viability was 0.887.

And the relative viability ([17]; first compound 0.001 µM)?
The relative viability was 0.68.

What about the relative viability ([17]; first compound 0.003162 µM) of the same compound?
Its relative viability is 0.659.

What about the relative viability ([17]; first compound 0.01 µM) of the same compound?
The relative viability was 0.717.

What about the relative viability ([17]; first compound 0.03162 µM) of the same compound?
Its relative viability is 0.433.

What about the relative viability ([17]; first compound 0.1 µM) of the same compound?
The relative viability was 0.475.

What about the relative viability ([18]; first compound 0.001 µM) of the same compound?
Its relative viability is 0.872.

And the relative viability ([18]; first compound 0.003162 µM)?
Its relative viability is 0.891.

And the relative viability ([18]; first compound 0.01 µM)?
Its relative viability is 0.917.

And the relative viability ([18]; first compound 0.03162 µM)?
The relative viability was 0.814.

And the relative viability ([18]; first compound 0.1 µM)?
The relative viability was 0.867.

What about the relative viability ([19]; first compound 0.001 µM) of the same compound?
The relative viability was 0.715.

And the relative viability ([19]; first compound 0.01 µM)?
The relative viability was 1.25.

What about the relative viability ([19]; first compound 0.03162 µM) of the same compound?
The relative viability was 0.548.

What about the relative viability ([19]; first compound 0.1 µM) of the same compound?
The relative viability was 0.546.

What about the relative viability ([20]; first compound 0.001 µM) of the same compound?
Its relative viability is 0.447.

And the relative viability ([20]; first compound 0.003162 µM)?
Its relative viability is 0.473.

And the relative viability ([20]; first compound 0.01 µM)?
Its relative viability is 0.407.

What about the relative viability ([20]; first compound 0.03162 µM) of the same compound?
Its relative viability is 0.469.

And the relative viability ([20]; first compound 0.1 µM)?
The relative viability was 0.735.

And the relative viability ([21]; first compound 0.001 µM)?
Its relative viability is 0.244.

And the relative viability ([21]; first compound 0.003162 µM)?
The relative viability was 0.276.

And the relative viability ([21]; first compound 0.01 µM)?
The relative viability was 0.206.

And the relative viability ([21]; first compound 0.03162 µM)?
The relative viability was 0.251.

And the relative viability ([21]; first compound 0.1 µM)?
The relative viability was 0.241.
